# From ChEMBL document CHEMBL2057166, “Discovery of novel hedgehog antagonists from cell-based screening: Isosteric modification of p38 bisamides as potent inhibitors of SMO” (Bioorg Med Chem Lett, 2012)
# How the values were obtained:
# Assay type in all cases: ADME, organism-based
# [1] = Clearance in CD-1 mouse at 3 mg/kg, iv and 10 mg/kg, po; details: in vivo
# [2] = Volume of distribution at steady state in CD-1 mouse at 3 mg/kg, iv and 10 mg/kg, po; details: in vivo, read-out: Vdss
# [3] = AUC in CD-1 mouse at 10 mg/kg, po; design: dose 10 mg/kg, route oral; details: plasma
# [4] = Oral bioavailability in CD-1 mouse at 10 mg/kg; details: in vivo
# [5] = Half life in CD-1 mouse at 3 mg/kg, iv; design: dose 3 mg/kg, route intravenous; details: in vivo
clearance [1] [mL/min/kg],Vd [2] [L/kg],AUC [3] [ng·h/mL],bioavailability [4] [%],half-life [5] [min],SMILES
210,12,100,22,54,Cc1ccc(-c2ncc(C)n2C)cc1NC(=O)c1ccc(OCc2ccccn2)cc1
8.3,0.5,12500,83,60,Cc1ccc(-c2ncc[nH]2)cc1NC(=O)c1ccc(OCc2ccccn2)cc1
